Drawing on patent US20220370368A1, “ORAL PHARMACEUTICAL COMPOSITION COMPRISING A MELT-AGGLOMERATED ACTIVE INGREDIENT CORE” (Hermes Pharma GmbH, priority 2019, published 2022), this text covers Angle of repose for one compound.

The data set in a line: Angle of repose according to Ph.Eur. chapter 2.9.36. It is filed as physicochemical. To be noted: prior to agglomeration. The text has this:
Any flow property provisions such as “passable”, “poor” or “very poor” as used herein shall be understood as flow properties measured and ranked according to pharmacopoeial standards (e.g. European Pharmacopoeia, 6th edition, chapter 2.9.36) unless where specified otherwise: […]

Compound `CN(C)CCOC(c1ccccc1)c1ccccc1.Cn1c(=O)c2[nH]c(Cl)nc2n(C)c1=O` [Dimenhydrinate] displayed an Angle of repose of 52 °.
